According to patent US20080090805A1, “CB-1 MODULATING COMPOUNDS AND THEIR USE” (ACADIA PHARMACEUTICALS INC., priority 2005, published 2008):
Like-named read-outs stand apart in the source and are kept apart here.

Assays:
human CB1 receptor = human CB1 receptor (Homo sapiens, UniProt P21554); experiment: CB1 receptor human binding assay ([3H]SR141716A, transfected HEK-293 T membranes); conditions: human CB1, HEK-293 T membranes; for Ki: read-out: Binding Human pKi (converted)
native CB1 receptors = native CB1 receptors (Rattus norvegicus, UniProt P20272); experiment: CB1 receptor rat binding assay ([3H]SR141716A, rat brain membranes)
Sequence of native CB1 receptors (P20272 whole entry): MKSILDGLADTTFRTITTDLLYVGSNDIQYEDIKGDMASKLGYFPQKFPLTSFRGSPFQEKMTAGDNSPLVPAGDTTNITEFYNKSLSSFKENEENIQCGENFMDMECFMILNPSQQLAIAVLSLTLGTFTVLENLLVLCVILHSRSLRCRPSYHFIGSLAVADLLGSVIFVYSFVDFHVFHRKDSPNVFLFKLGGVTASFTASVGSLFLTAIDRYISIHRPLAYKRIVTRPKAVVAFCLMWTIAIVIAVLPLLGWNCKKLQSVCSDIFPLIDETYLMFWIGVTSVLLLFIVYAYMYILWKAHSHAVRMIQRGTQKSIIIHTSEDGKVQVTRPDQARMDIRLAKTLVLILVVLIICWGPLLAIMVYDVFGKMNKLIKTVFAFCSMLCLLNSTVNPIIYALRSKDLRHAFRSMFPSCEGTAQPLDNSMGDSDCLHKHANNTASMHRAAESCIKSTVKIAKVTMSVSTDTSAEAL

hERG = hERG (Homo sapiens, UniProt Q12809); experiment: HERG safety study (whole cell recordings, CHO cells); conditions: CHO cells stably expressing hERG channels, pH 7.4
Sequence of hERG (Q12809 whole entry): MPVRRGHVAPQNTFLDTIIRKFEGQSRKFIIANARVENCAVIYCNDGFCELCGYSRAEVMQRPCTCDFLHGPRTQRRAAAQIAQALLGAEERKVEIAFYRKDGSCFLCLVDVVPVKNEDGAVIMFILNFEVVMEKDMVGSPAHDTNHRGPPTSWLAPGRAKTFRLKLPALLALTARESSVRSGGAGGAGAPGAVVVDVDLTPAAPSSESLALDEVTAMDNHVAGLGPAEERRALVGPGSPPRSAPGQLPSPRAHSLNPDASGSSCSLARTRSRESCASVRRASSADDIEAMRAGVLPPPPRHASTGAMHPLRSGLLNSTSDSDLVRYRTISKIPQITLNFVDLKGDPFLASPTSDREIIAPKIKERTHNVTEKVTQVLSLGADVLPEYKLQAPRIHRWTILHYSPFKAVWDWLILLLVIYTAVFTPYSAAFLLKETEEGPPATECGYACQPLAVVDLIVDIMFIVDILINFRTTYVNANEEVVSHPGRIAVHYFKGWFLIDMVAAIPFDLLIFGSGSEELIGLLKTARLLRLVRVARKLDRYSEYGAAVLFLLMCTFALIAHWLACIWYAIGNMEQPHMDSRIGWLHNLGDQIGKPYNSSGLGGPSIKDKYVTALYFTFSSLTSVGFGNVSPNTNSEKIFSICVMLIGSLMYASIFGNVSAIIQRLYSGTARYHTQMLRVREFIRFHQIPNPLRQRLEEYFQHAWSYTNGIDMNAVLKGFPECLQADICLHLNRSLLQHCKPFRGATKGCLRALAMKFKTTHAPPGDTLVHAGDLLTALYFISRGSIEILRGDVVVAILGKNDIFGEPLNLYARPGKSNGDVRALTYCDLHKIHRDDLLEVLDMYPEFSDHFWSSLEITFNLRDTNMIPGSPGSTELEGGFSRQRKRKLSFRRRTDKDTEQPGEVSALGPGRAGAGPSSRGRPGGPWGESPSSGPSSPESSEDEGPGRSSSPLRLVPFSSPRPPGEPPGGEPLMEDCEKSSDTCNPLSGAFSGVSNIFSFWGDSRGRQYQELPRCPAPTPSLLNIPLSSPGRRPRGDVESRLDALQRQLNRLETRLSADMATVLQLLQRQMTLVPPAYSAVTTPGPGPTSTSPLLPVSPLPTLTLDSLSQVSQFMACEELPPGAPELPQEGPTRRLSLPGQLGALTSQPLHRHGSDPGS

[1] = Clearance study, liver microsomes (human); conditions: pH 7.4
[2] = Clearance study, liver microsomes (rats); conditions: rat, pH 7.4
[3] = Clearance study, liver microsomes (mice); conditions: mouse, pH 7.4
[4] = rat brain membranes, [3H]SR141716A
[5] = rat brain membranes, [3H]SR141716A, read-out: Binding rat pKi (converted)

Sequence of human CB1 receptor (P21554 whole entry): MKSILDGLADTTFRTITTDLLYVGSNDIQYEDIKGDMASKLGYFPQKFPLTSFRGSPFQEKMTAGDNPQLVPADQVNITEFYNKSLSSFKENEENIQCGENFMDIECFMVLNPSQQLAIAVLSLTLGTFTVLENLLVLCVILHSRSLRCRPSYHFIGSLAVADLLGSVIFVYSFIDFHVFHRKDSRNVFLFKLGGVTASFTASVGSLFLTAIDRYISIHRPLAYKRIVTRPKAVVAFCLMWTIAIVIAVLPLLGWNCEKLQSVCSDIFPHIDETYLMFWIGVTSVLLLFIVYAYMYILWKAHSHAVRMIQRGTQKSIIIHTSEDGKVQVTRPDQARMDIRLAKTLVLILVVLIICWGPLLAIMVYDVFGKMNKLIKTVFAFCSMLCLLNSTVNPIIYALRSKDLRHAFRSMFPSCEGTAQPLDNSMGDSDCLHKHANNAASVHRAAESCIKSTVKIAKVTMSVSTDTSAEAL

SMILES | Binding Human Inh % (human CB1 receptor) [%] | Ki (human CB1 receptor) [nM] | Binding rat Inh % (native CB1 receptors; [4]) [%] | Ki (native CB1 receptors; [5]) [nM] | inhibition at 1 µM (hERG) [%] | other results
O=C(NN1CCCCCC1)c1ccc2c(c1)N=C(c1cccc(Cl)c1)c1ccccc1S2 [drawing 1209] | 94 | 1.58 | 87 | 2 | – | –
CC(C)CNC(=O)c1ccc2c(c1)N=C(c1ccc(Cl)cc1F)c1ccccc1S2 [drawing 1835] | – | – | – | – | 41 | –
O=C(NCc1cccs1)c1ccc2c(c1)N=C(c1ccc(F)cc1)c1ccccc1S2 [drawing 1178] | 76 | 0.2 | 97 | 1.58 | – | –
CC(C)CNC(=O)c1ccc2c(c1)N=C(c1ccc(Cl)c(Cl)c1)c1ccccc1S2 [drawing 1192] | 100 | 0.398 | 96 | 1.58 | – | –
COc1cccc(C2=Nc3cc(C(=O)NC4CCC(F)(F)CC4)ccc3Sc3ccccc32)n1 [drawing 1193] | 88 | 0.501 | 82 | 0.794 | – | –
CCCCNC(=O)c1ccc2c(c1)N=C(c1ccc(Cl)s1)c1ccccc1S2 [drawing 1191] | 90 | 0.316 | 101 | 2.51 | – | –
O=C(NC1CCCCC1)c1ccc2c(c1)N=C(c1ccc(F)cc1)c1ccccc1S2 [drawing 1202] | 87 | 1.26 | 84 | 3.16 | – | –
CCCNC(=O)c1ccc2c(c1)N=C(c1ccc(Cl)cc1)c1ccccc1S2 [drawing 1210] | 74 | 2 | 95 | 6.31 | – | –
CC(C)CNC(=O)c1ccc2c(c1)N=C(c1ccc(Cl)cc1)c1ccc(F)cc1S2 [drawing 1811] | – | – | – | – | 58 | –
CCCCNC(=O)c1ccc2c(c1)N=C(c1ccc(Cl)cc1)c1ccccc1[S+]2[O-] (centres unmarked) [drawing 1840] | – | – | – | – | 52 | –
O=C(NCCCC(F)(F)F)c1ccc2c(c1)N=C(c1ccc(Cl)s1)c1ccccc1S2 [drawing 1176] | 87 | 0.158 | 91 | 0.501 | – | –
CC(C)CCNC(=O)c1ccc2c(c1)N=C(c1cccc(Cl)c1)c1ccccc1S2 [drawing 1822] | – | – | – | – | 59 | –
CC(C)CCNC(=O)c1ccc2c(c1)N=C(c1ccccn1)c1ccccc1S2 [drawing 1842] | – | – | – | – | 39 | –
O=C(NCCCC(F)(F)F)c1ccc2c(c1)N=C(c1ccsc1)c1ccccc1S2 [drawing 1837] | – | – | – | – | 28 | –
Cc1ccc(CNC(=O)c2ccc3c(c2)N=C(c2ccc(Cl)s2)c2ccccc2S3)o1 [drawing 1836] | – | – | – | – | 13 | –
CC(C)CNC(=O)c1ccc2c(c1)N=C(c1ccc(Cl)cc1)c1ccc(F)cc1S2 [drawing 1177] | 93 | 0.158 | 89 | 3.98 | – | –
COCCNC(=O)c1ccc2c(c1)N=C(c1ccc(Cl)s1)c1ccccc1S2 [drawing 1218] | 94 | 20 | 80 | 50.1 | – | –
COc1cccc(C2=Nc3cc(C(=O)NCCCC(F)(F)F)ccc3Sc3ccccc32)n1 [drawing 1186] | 84 | 0.316 | 87 | 10 | – | –
O=C(NN1CCCCC1)c1ccc2c(c1)N=C(C1CCCCC1)c1ccccc1S2 [drawing 1216] | 65 | 2 | 94 | – | – | Ki (native CB1 receptors): 5.01 nM
CC(C)CNC(=O)c1ccc2c(c1)N=C(c1cccc(Cl)c1)c1ccccc1S2 [drawing 1819] | – | – | – | – | 93 | –
CC(C)CNC(=O)c1ccc2c(c1)N=C(c1ccccn1)c1ccccc1S2 [drawing 1217] | 89 | 6.31 | 79 | 158 | – | –
O=C(NN1CCCCCC1)c1ccc2c(c1)N=C(c1ccc(Cl)s1)c1ccccc1S2 [drawing 1816] | – | – | – | – | 30 | –
CCCCNC(=O)c1ccc2c(c1)N=C(c1ccc(Cl)cn1)c1cc(F)ccc1S2 [drawing 1841] | – | – | – | – | 52 | –

SMILES | Binding Human Inh % (human CB1 receptor) [%] | Ki (human CB1 receptor) [nM] | Binding rat Inh % (native CB1 receptors; [4]) [%] | Ki (native CB1 receptors; [5]) [nM] | inhibition at 1 µM (hERG) [%] | other results
O=C(NN1CCCCCC1)c1ccc2c(c1)N=C(c1cccc(Cl)c1)c1ccccc1S2 [drawing 1825] | – | – | – | – | 97 | –
CCCNC(=O)c1ccc2c(c1)N=C(c1ccc(Cl)cc1)c1ccccc1S2 [drawing 1826] | – | – | – | – | 55 | –
O=C(NN1CCCCCC1)c1ccc2c(c1)N=C(c1cccc(F)c1)c1ccccc1S2 [drawing 1215] | 103 | 2 | 97 | 6.31 | – | –
O=C(NCCCC(F)(F)F)c1ccc2c(c1)N=C(c1ccc(Cl)cc1F)c1ccccc1S2 [drawing 1809] | – | – | – | – | 24 | –
O=C(NN1CCCCC1)c1ccc2c(c1)N=C(c1ccc(F)cc1)c1ccccc1S2 [drawing 1207] | 87 | 1.26 | 103 | 10 | – | –
CCCCNC(=O)c1ccc2c(c1)N=C(c1ccc(Cl)cc1)c1ccc(F)cc1S2 [drawing 1184] | 94 | 0.251 | 98 | 2.51 | – | –
CCCCNC(=O)c1ccc2c(c1)N=C(c1ccc(Br)cn1)c1ccccc1S2 [drawing 1820] | – | – | – | – | 78 | –
CCCCNC(=O)c1ccc2c(c1)N=C(c1ccc(Cl)cc1)c1ccccc1S2 [drawing 1812] | – | – | – | – | 49 | –
CC(C)CNC(=O)c1ccc2c(c1)N=C(c1ccc(Cl)c(Cl)c1)c1ccccc1S2 [drawing 1833] | – | – | – | – | 16 | –
O=C(NC1CCCCC1)c1ccc2c(c1)N=C(c1ccc(F)cc1)c1ccccc1S2 [drawing 1814] | – | – | – | – | 45 | –
O=C(NCCCC(F)(F)F)c1ccc2c(c1)N=C(c1ccccn1)c1ccccc1S2 [drawing 1832] | – | – | – | – | 28 | –
O=C(NN1CCCCC1)c1ccc2c(c1)N=C(c1ccc(Cl)cc1)c1ccccc1S2 [drawing 1831] | – | – | – | – | 92 | –
CC(C)CCNC(=O)c1ccc2c(c1)N=C(c1cccc(Cl)c1)c1ccccc1S2 [drawing 1185] | 86 | 0.251 | 89 | 1 | – | –
O=C(NCCCC(F)(F)F)c1ccc2c(c1)N=C(c1ccc(Cl)cc1F)c1ccccc1S2 [drawing 1175] | 92 | 0.0794 | 87 | 0.501 | – | –
CC(C)CNC(=O)c1ccc2c(c1)N=C(c1ccc(Cl)cc1F)c1ccccc1S2 [drawing 1199] | 77 | 0.631 | 94 | 5.01 | – | –
O=C(NN1CCCCCC1)c1ccc2c(c1)N=C(c1ccc(Cl)s1)c1ccccc1S2 [drawing 1208] | 96 | 1.58 | 93 | 5.01 | – | –
O=C(NCc1ccccc1)c1ccc2c(c1)N=C(c1cccc(Br)c1)c1ccccc1S2 | – | – | – | – | – | microsomal CLint at 1 μM [1]: 4 µL/min/mg; microsomal CLint at 1 μM [2]: 69 µL/min/mg; microsomal CLint at 1 μM [3]: 566 µL/min/mg
CC(C)CNC(=O)c1ccc2c(c1)N=C(c1ccc(Cl)s1)c1ccc(Cl)cc1S2 [drawing 1200] | 92 | 0.631 | 100 | 5.01 | – | –
CCCCNC(=O)c1ccc2c(c1)N=C(c1ccc(Cl)cc1)c1ccccc1[S+]2[O-] (centres unmarked) [drawing 1736] | – | – | – | – | – | microsomal CLint at 1 μM [1]: 31 µL/min/mg; microsomal CLint at 1 μM [2]: 41 µL/min/mg; microsomal CLint at 1 μM [3]: 53 µL/min/mg
O=C(NC1CCCCC1)c1ccc2c(c1)N=C(c1cccc(Cl)c1)c1ccccc1S2 [drawing 1194] | 107 | 0.631 | 80 | 1.26 | – | –
COc1ccc(C2=Nc3cc(C(=O)NCC(C)C)ccc3Sc3ccccc32)cc1 [drawing 1708] | – | – | – | – | – | microsomal CLint at 1 μM [1]: 78 µL/min/mg; microsomal CLint at 1 μM [2]: 113 µL/min/mg; microsomal CLint at 1 μM [3]: 218 µL/min/mg
O=C(NCc1cccc(Cl)c1)c1ccc2c(c1)N=C(c1ccc(Cl)cc1)c1ccccc1S2 [drawing 1725] | – | – | – | – | – | microsomal CLint at 1 μM [1]: 9 µL/min/mg; microsomal CLint at 1 μM [2]: 58 µL/min/mg; microsomal CLint at 1 μM [3]: 238 µL/min/mg
